Measured values published in US20230312587A1, “PTERIDINONE COMPOUNDS AND USES THEREOF” (Vertex Pharmaceutical Incorporated, priority 2018, published 2023).
Read-outs that look alike come from different tables or passages of the source.

Tests used:
HepG2 WFS1 KO = assay: In vitro cell viability (CellTiter-Glo), HepG2 WFS1 KO; type: cell-based; conditions: for IC50: 96 hours
Source text: A double cleavage strategy was employed to remove large fragments from the WFS1 locus. Suitable target sites in WFS1 exon 8 were first selected using CRISPR design software to rank suitable target sites and computationally predict off-target sites for each intended target. Six top guide RNA sequences are identified and screened for activity using the Surveyor Mutation Detection Kit (Integrated DNA Technologies). Then, the best 2 guide RNAs were cloned into GeneArt OFP CRISPR nuclease vectors (Thermofisher, Cat #A21174) separately and co-transfected into HepG2 cells using nucleofection (4D Nucleofector X, Lonza). Cells were sorted by FACS 48 hrs later to enrich for the OFP positive cell population. The OFP positive cell population were plated into 96-well plates at 0.5-5 cells/well to isolate clonal cell lines. After allowing cells to expand for 2-3 weeks, plates were inspected for presence of colonies. When colonies became more than 70% confluent, they were dissociated with trypsin and were further expanded. Cell clones with homozygous double cleavage of WFS1 exon 8 were detected with PCR and confirmed with DNA sequencing.
HEK293 cells containing empty pCLPCx vector (HEK293 empty), HEK293 cells stably over-expression WFS1 (HEK293 WFS1), HepG2, and HepG2 cells where WFS1 was depleted via CRISPR/Cas9 (HepG2 WFS1 KO) cells were plated into 96-well black plates (Corning, product #3904) in 100 microliters of complete DMEM cell culture media [DMEM (Life Technologies, product #11960-051) media supplemented with 10% FBS (Hyclone, catalog #SH30071.03), antimycotic/antibiotic (Life Technologies, product #15240-062), and Glutamax (Life Technologies, product #35050-061)] at 1,000 (HEK293) or 5,000 (HepG2) cells per well. Cells were allowed to attach and grow overnight, after which compounds are added at various concentrations. Cell viability was assessed 96 hrs after compound addition with CellTiter-Glo reagent (Promega, catalog #G7570) according to manufacturer's protocol and measurement on a Pherastar luminescence plate reader (BMG Labtech).
To determine the effect of WFS1 depletion on compound mediated inhibition of cell viability, parental HepG2 cells and HepG2 cells where WFS1 was deleted by CRISPR/Cas9 were exposed to increasing concentrations of either Compound 136 or Compound 253 for 96 hours after which time viability was determined using Cell Titer Glo reagent (Promega). […] The IC50s for the viability of both the HepG2 parental and WFS1 knockout cells are summarized in Table 47: A<0.5 μM; 0.5 μM≤<2.0 μM; 2.0 μM≤C<10.0 μM; D≥[…].

[1] = target: HEK293 membranes over-expressing WFS-1 (Homo sapiens (Human), UniProt O76024); assay: Radioligand displacement assay (tritiated Compound 136 probe); type: binding; conditions: displacement of tritiated Compound 136
HEK293 membranes over-expressing WFS-1, sequence (O76024 whole entry): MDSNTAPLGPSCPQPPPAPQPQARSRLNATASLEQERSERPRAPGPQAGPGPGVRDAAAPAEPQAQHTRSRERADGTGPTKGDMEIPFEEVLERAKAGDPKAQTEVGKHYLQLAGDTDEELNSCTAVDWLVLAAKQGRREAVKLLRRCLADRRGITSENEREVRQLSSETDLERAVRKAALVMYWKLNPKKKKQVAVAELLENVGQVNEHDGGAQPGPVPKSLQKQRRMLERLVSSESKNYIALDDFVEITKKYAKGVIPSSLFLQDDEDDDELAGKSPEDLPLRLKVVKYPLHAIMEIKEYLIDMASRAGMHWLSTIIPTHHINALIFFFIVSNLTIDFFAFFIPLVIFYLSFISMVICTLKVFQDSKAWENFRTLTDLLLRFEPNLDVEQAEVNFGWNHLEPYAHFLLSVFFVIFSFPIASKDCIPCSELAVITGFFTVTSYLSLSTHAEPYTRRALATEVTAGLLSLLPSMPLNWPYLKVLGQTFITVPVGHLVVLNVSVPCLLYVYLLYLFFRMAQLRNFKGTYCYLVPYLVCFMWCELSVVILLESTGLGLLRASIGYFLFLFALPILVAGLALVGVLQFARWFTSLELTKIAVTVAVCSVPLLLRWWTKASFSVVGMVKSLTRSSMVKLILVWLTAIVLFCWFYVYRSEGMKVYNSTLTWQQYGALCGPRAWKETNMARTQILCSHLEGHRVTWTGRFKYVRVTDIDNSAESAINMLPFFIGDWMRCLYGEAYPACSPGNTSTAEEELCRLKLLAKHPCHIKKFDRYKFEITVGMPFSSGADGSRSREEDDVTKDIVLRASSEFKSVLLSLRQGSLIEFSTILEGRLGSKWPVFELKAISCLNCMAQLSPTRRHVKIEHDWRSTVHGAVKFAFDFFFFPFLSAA
How it was run: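 WFS-1-overexpressing HEK293 membranes were preincubated 10 min with compound, then tritiated probe was added for 90 min at room temperature. Bound probe was collected by filtration on PEI-pretreated GF/B filters, washed and scintillation-counted. IC50 came from a 3-parameter fit of bound probe vs compound concentration.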

[2] = Homo sapiens, HepG2 WFS1 knockout, read-out: HepG2 WFS1 KO viability
[3] = HepG2 WFS1 knockout, read-out: HepG2 WFS1 KO viability

Compound	IC50 (HepG2 WFS1 KO; [2]) [nM]	IC50 [1] [nM]	IC50 (HepG2 WFS1 KO; [3]) [nM]	IC50 (HepG2 WFS1 KO; cell viability, HepG2 WFS1 KO, Cell Titer Glo, read-out: IC50) [nM]	IC50 (HepG2 WFS1 KO; cell viability, HepG2 WFS1 KO, read-out: IC50 class) [nM]	shift in IC50 on depletion of WFS1 from HepG2 cells (HepG2 WFS1 KO; cell viability, WFS1 KO vs parental HepG2, 96 hours)
CC[C@H]1C(=O)Nc2cnc(NCc3cnn(Cc4ccc(F)cc4)c3)nc2N1C [Compound 9, (7S)-7-ethyl-2-(((1-(4-fluorobenzyl)-1H-pyrazol-4-yl)methyl)amino)-8-methyl-7,8-dihydropteridin-6(5H)-one]	≥ 10000	60 to 600				
Cc1ncc(Cn2cc(CNc3nc(C)c4c(n3)N(C)[C@@H](C)C(=O)N4)cn2)cn1 [Compound 163, (7S)-4,7,8-trimethyl-2-(((1-((2-methylpyrimidin-5-yl)methyl)-1H-pyrazol-4-yl)methyl)amino)-7,8-dihydropteridin-6(5H)-one]	≥ 10000	≥ 3000				
Cc1nc(NCc2cnn(Cc3ccc(F)nc3)c2)nc2c1NC(=O)[C@H](C1CC1)N2C [Compound 421, (7S)-7-cyclopropyl-2-(((1-((6-fluoropyridin-3-yl)methyl)-1H-pyrazol-4-yl)methyl)amino)-4,8-dimethyl-7,8-dihydropteridin-6(511)-one]		60 to 600	≥ 10000			
Cc1nc(NCc2cn(Cc3ccc(C(F)(F)F)nc3)nc2Br)nc2c1NC(=O)[C@H](C)N2C [Compound 412, (S)-2-(((3-bromo-1-((6-(trifluoromethyl)pyridin-3-yl)methyl)-1H-pyrazol-4-yl)methyl)amino)-4,7,8-trimethyl-7,8-dihydropteridin-6(5H)-one]	≥ 10000	< 60				
Cc1nc(NCc2cnn(Cc3ccc(C(F)(F)F)nc3)c2)nc2c1NC(=O)[C@H](C)N2C [Compound 136, (7S)-4,7,8-trimethyl-2-(((1-((6-(trifluoromethyl)pyridin-3-yl)methyl)-111-pyrazol-4-yl)methyl)amino)-7,8-dihydropteridin-6(5H)-one]		60 to 600	≥ 10000	> 27000	≥ 10000	greater than 100 fold
CCOc1ccc(CCn2cc(CNc3ncc4c(n3)N(C)[C@@H](C)C(=O)N4)cn2)cc1 [Compound 121, (7S)-2-(((1-(4-ethoxyphenethyl)-1H-pyrazol-4-yl)methyl)amino)-7,8-dimethyl-7,8-dihydropteridin-6(5H)-one]	≥ 10000	60 to 600				
Cc1ncc(Cn2cc(CNc3nc(C)c4c(n3)N(C)[C@@H](C(C)C)C(=O)N4)cn2)cc1F [Compound 425, (7S)-2-(((1-((5-fluoro-6-methylpyridin-3-yl)methyl)-1H-pyrazol-4-yl)methyl)amino)-7-isopropyl-4,8-dimethyl-7,8-dihydropteridin-6(5H)-one]	≥ 10000	60 to 600				
Cc1nc(NCc2cnn(CCC3CCOCC3)c2)nc2c1NC(=O)[C@H](C)N2C [Compound 115, (7S)-4,7,8-trimethyl-2-(((1-(2-(tetrahydro-2H-pyran-4-yl)ethyl)-1H-pyrazol-4-yl)methyl)amino)-7,8-dihydropteridin-6(5H)-one]	≥ 10000	600 to 3000				
Cc1nc(NCc2cnn(Cc3ccc(Cl)nc3)c2)nc2c1NC(=O)[C@H](C(C)C)N2C [Compound 409, (7S)-2-(((1-((6-chloropyridin-3-yl)methyl)-1H-pyrazol-4-yl)methyl)amino)-7-isopropyl-4,8-dimethyl-7,8-dihydropteridin-6(5H)-one]	≥ 10000	< 60				
Cc1nc(NCc2cnn(Cc3ccc(F)cc3)c2)nc2c1N(C)C(=O)[C@H](C)N2C [Compound 1, (7S)-2-(((1-(4-fluorobenzyl)-1H-pyrazol-4-yl)methyl)amino)-4,5,7,8-tetramethyl-7,8-dihydropteridin-6(5H)-one]	≥ 10000	60 to 600				
Cc1nc(NCc2cnn(CCc3ccc(F)cc3)c2)nc2c1NC(=O)[C@H](C)N2C [Compound 6, (7S)-2-(((1-(4-fluorophenethyl)-1H-pyrazol-4-yl)methyl)amino)-4,7,8-trimethyl-7,8-dihydropteridin-6(5H)-one]	≥ 10000	60 to 600				
Cc1nc(NCc2cnn(Cc3ccc(F)cc3)c2)nc2c1NC(=O)C1(CC1)N2 [Compound 222, 2′-(((1-(4-fluorobenzyl)-1H-pyrazol-4-yl)methyl)amino)-4′-methyl-5′,8′-dihydro-6′H-spiro[cyclopropane-1,7′-pteridin]-6′-one]	≥ 10000	600 to 3000				
Cc1nc(N[C@H]2C[C@@H](Oc3cc(F)c(F)c(F)c3)C2)nc2c1NC(=O)[C@H](C)N2C [Compound 247, (7S)-4,7,8-trimethyl-2-((cis-3-(3,4,5-trifluorophenoxy)cyclobutyl)amino)-7,8-dihydropteridin-6(5H)-one]	≥ 10000	60 to 600				
Cc1nc(NCc2cnn(Cc3ccc(C(F)(F)F)nc3[C@@H](C)O)c2)nc2c1NC(=O)[C@H](C)N2C (single isomer, unassigned) [Compound 420]	≥ 10000	60 to 600				
(7S)-2-(((1-((6-fluoro-2-isopropylpyridin-3-yl)methyl)-1H-pyrazol-4-yl)methyl)(methyl)amino)-7-isopropyl-4,8-dimethyl-7,8-dihydropteridin-6(5H)-one [Compound 430]		< 60	≥ 10000			
Cc1nc(NCc2cnn(Cc3ccc(C(F)(F)F)nc3C(C)(C)O)c2)nc2c1NC(=O)[C@H](C)N2C [Compound 416, (7S)-2-(((1-((2-(2-hydroxypropan-2-yl)-6-(trifluoromethyl)pyridin-3-yl)methyl)-1H-pyrazol-4-yl)methyl)amino)-4,7,8-trimethyl-7,8-dihydropteridin-6(5H)-one]	≥ 10000	< 60				
Cc1nc(NCc2cnn(C[C@H](C)c3ccc(F)cc3)c2)nc2c1NC(=O)[C@H](C)N2C [Compound 96, (7S)-2-(((1-((R)-2-(4-fluorophenyl)propyl)-1H-pyrazol-4-yl)methyl)amino)-4,7,8-trimethyl-7,8-dihydropteridin-6(5H)-one]	≥ 10000	< 60				
Cc1nc(NCc2cnn(Cc3ccc(C(F)(F)F)nc3Cl)c2)nc2c1NC(=O)[C@H](C)N2C [Compound 418, (7S)-2-(((1-((2-chloro-6-(trifluoromethyl)pyridin-3-yl)methyl)-1H-pyrazol-4-yl)methyl)amino)-4,7,8-trimethyl-7,8-dihydropteridin-6(5H)-one]	≥ 10000	< 60				
Cc1nc(NCc2cnn(Cc3cnc(Cl)c(F)c3)c2)nc2c1NC(=O)[C@H](C(C)C)N2C [Compound 424, (7S)-2-(((1-((6-chloro-5-fluoropyridin-3-yl)methyl)-1H-pyrazol-4-yl)methyl)amino)-7-isopropyl-4,8-dimethyl-7,8-dihydropteridin-6(5H)-one]	≥ 10000	< 60				
Cc1nc(NCc2cnn(C3CCN(C(=O)c4ccc(F)cc4)CC3)c2)nc2c1NC(=O)[C@H](C)N2C [Compound 125, (7S)-2-(((1-(1-(4-Fluorobenzoyl)piperidin-4-yl)-1H-pyrazol-4-yl)methyl)amino)-4,7,8-trimethyl-7,8-dihydropteridin-6(5H)-one]	≥ 10000	60 to 600				
Cc1nc(NCc2cnn(CC(C)(O)c3ccc(F)cc3)c2)nc2c1NC(=O)[C@H](C)N2C (stereo partly drawn) [Compound 128, (7S)-2-(((1-(2-(4-fluorophenyl)-2-hydroxypropyl)-1H-pyrazol-4-yl)methyl)amino)-4,7,8-trimethyl-7,8-dihydropteridin-6(5H)-one]	≥ 10000	≥ 3000				
Cc1cnc(C(F)(F)F)nc1-n1cc(CNc2ncc3c(n2)N(C)[C@@H](C)C(=O)N3)cn1 [Compound 164, (7S)-7,8-dimethyl-2-(((1-(5-methyl-2-(trifluoromethyl)pyrimidin-4-yl)-1H-pyrazol-4-yl)methyl)amino)-7,8-dihydropteridin-6(5H)-one]	≥ 10000	60 to 600				
CC[C@H]1C(=O)Nc2cnc(NCc3cnn(Cc4ccc(C(F)(F)F)nc4)c3)nc2N1C [Compound 427, (7S)-7-ethyl-8-methyl-2-(((1-((6-(trifluoromethyl)pyridin-3-yl)methyl)-1H-pyrazol-4-yl)methyl)amino)-7,8-dihydropteridin-6(5H)-one]	≥ 10000	< 60				
